We go through nine compounds from ChEMBL document CHEMBL1201862, “PubChem BioAssay data set” (2004).

The source made the active and inactive calls.

The target of test [1] is E3 ubiquitin-protein ligase Mdm2/Protein Mdm4 (Homo sapiens, UniProt O15151+Q00987). As to the kind of experiment: Mdm2-MdmX interaction inhibitors, dose response, luminescence detection (AID 504593). The format is functional.
Test [2] in a line: cytotoxicity in HEK-293T cells, dose response, cytotoxicity control for TCR NF-kB inhibitor project, luminescence, T-cell screen hits (AID 489026).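 Also: cells exposed to compound about 14 hours before the viability readout.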 The format is functional, cell-based.
The target in another test is Hexokinase (Trypanosoma brucei, UniProt Q38C41). As to the kind of experiment: Confirmation assay for inhibitors of Trypanosoma brucei hexokinase 1-Analogue-first series. [Related pubchem assays (depositor defined):AID1430, AID1632, AID2516, AID2560, AID2579, AID2600, AID449725, AID492951]. It counts as functional.
Chain of Hexokinase (Q38C41 whole entry): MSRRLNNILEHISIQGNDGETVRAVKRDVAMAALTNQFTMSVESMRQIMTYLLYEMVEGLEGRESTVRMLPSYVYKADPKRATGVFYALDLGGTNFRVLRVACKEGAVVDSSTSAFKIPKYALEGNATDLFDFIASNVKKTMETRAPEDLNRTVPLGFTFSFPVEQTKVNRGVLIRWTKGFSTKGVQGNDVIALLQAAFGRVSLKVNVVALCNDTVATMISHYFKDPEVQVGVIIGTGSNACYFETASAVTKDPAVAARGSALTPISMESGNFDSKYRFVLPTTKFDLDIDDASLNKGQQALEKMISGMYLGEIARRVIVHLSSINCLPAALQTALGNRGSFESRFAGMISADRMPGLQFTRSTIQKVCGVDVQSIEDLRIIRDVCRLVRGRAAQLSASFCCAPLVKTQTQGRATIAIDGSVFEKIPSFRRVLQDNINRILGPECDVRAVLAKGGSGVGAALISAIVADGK
The test system of test [3] is Vero. Kind of test: cytotoxicity of synthesized analogs in Vero 76, SAR follow-up, cytotoxicity control for West Nile virus antiviral project, Vero 76 cells (AID 2414). The format is functional. Conditions: Chlorocebus sabaeus.
Test [4] relates to Vero. Kind of test: cytotoxicity of synthesized analogs in Vero cells, SAR follow-up, cytotoxicity control for West Nile virus antiviral project, cell-based, set II (AID 2402). The note with it: Chlorocebus sabaeus. It counts as functional.
The subject of test [5] is Vero. Kind of test: Vero E6 cell cytotoxicity, SAR follow-up, cytotoxicity control for West Nile virus antiviral project, synthesized analogs (AID 2244). It counts as functional. Conditions: Chlorocebus sabaeus.
Test [6] can be described thus: A Cell Based Assay for the Identification of Probe candidate Compounds with Anti- Venezuelan Equine Encephalitis virus. [Related pubchem assays: 2409, 2419, 1621, 2238, 2405, 2024, 2065, 2402, 2414, 1635, 1650, 2244 ]. It counts as functional.
The test system of test [7] is Vero. Kind of test: West Nile virus CPE inhibition, SAR follow-up, cell-based, synthesized analogs (AID 2238). The format is functional. Conditions: Chlorocebus sabaeus.
The target of test [8] is T1, Ubiquitin-conjugating enzyme E2 N (Homo sapiens, UniProt P61088).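 Also: Dose-response confirmation in a TR-FRET assay detecting UBC13-driven polyubiquitin chain formation, inhibition measured.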
T1 sequence (P61088 whole entry): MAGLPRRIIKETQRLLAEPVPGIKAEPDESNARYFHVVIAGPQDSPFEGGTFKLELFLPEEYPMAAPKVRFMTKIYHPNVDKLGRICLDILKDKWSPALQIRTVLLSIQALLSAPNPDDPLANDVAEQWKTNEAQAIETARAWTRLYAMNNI
It counts as functional.

The target in another test is Trypsin (Sus scrofa, UniProt P00761). Kind of test: porcine trypsin inhibitors, dose response, selectivity assay for Rce1 protease inhibitor project, biochemical, quenched peptide fluorescence, cherry-pick (AID 488789).
Chain of Trypsin (P00761 whole entry): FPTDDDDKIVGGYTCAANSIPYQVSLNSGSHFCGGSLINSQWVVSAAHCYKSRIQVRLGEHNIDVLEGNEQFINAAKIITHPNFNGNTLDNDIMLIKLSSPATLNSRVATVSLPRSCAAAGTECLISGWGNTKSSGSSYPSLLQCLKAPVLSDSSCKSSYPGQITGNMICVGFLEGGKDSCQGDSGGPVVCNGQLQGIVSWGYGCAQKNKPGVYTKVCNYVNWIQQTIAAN
The next test deals with CAAX prenyl protease 2 (Saccharomyces cerevisiae S288c, UniProt Q03530). The format is biochemical.
Chain of CAAX prenyl protease 2 (Q03530 whole entry): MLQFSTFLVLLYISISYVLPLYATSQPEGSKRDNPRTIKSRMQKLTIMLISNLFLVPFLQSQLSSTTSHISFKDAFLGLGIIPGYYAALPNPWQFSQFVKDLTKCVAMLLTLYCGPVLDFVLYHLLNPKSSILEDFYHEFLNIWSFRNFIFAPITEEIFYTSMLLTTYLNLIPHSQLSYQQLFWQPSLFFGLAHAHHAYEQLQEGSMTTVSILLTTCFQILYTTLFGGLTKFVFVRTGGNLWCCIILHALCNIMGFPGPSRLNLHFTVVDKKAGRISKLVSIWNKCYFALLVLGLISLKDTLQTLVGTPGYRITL
The target of test [9] is Eukaryotic translation initiation factor 4H (Homo sapiens, UniProt Q15056). As to the kind of experiment: eIF4H inhibition in translation initiation, SAR follow-up (AID 435011). It counts as functional.
The target of test [10] is Polyadenylate-binding protein 1 (Homo sapiens, UniProt P11940). As to the kind of experiment: PABP inhibition in translation initiation, SAR follow-up (AID 435018). The format is functional.
Chain of Polyadenylate-binding protein 1 (P11940 whole entry): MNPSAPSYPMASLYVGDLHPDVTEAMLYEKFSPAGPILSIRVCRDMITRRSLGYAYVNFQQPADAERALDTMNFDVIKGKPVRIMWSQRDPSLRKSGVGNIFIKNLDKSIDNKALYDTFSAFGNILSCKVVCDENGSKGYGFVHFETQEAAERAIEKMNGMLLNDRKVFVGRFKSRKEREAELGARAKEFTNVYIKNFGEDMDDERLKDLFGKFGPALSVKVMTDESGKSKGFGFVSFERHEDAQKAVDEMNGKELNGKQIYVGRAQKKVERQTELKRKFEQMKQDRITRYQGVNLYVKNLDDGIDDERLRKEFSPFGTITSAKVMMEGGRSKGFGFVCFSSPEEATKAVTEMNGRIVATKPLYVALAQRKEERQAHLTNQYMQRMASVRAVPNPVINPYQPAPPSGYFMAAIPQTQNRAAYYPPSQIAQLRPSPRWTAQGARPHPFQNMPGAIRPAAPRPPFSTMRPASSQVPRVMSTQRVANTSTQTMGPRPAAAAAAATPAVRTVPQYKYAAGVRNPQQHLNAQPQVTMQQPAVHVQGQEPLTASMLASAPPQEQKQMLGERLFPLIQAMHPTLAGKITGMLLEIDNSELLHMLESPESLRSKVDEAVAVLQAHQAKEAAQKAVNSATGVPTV
A short description of test [11]: Luminescence Cell-Based Dose Retest to Confirm Inhibitors of Cancer Stem Cells. [Related pubchem assays (depositor defined):AID2717, AID2721]. It counts as functional. Conditions: Homo sapiens.
The target in a further test is Integrin alpha-4 (Homo sapiens, UniProt P13612). Kind of test: VLA-4 integrin allosteric ligands, SAR follow-up, cell-based, LIBS antibody binding, flow cytometry (AID 488791). It counts as functional.
The subject of another test is INS1. As to the kind of experiment: beta cell apoptosis inhibitors, cytokine rescue, dose response, luminescence, retest (AID 449756).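 Also: cell death triggered by IL-1 beta plus TNF-alpha plus IFN-gamma mixture; protective hits raise ATP signal compared with cytokine alone wells.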 The format is functional, cell-based. The note with it: Rattus norvegicus.
A further test addresses Melanocortin receptor 4 (Homo sapiens, UniProt P32245). It counts as functional, cell-based.
Test [12] concerns the target Multidrug resistance protein CDR2 (Candida albicans (strain SC5314 / ATCC MYA-2876) (Yeast), UniProt P78595). As to the kind of experiment: CaCDR2 efflux pump inhibitors in yeast, dose response, S. cerevisiae AD1-8u, singleplex, Cherry Pick2 set (AID 623994). It counts as functional. Conditions: read-out: EC50_MICROM.
The target of the next test is Paired box protein Pax-8 (Homo sapiens, UniProt Q06710). As to the kind of experiment: inhibitors of PAX8-driven TPO luciferase reporter, dose response, RMG-I cells, cherry-pick (AID 687027).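 Also: luciferase reporter driven by Pax8 target thyroperoxidase promoter measured by SteadyGlo luminescence.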 It counts as functional, cell-based.
Chain of Paired box protein Pax-8 (Q06710 whole entry): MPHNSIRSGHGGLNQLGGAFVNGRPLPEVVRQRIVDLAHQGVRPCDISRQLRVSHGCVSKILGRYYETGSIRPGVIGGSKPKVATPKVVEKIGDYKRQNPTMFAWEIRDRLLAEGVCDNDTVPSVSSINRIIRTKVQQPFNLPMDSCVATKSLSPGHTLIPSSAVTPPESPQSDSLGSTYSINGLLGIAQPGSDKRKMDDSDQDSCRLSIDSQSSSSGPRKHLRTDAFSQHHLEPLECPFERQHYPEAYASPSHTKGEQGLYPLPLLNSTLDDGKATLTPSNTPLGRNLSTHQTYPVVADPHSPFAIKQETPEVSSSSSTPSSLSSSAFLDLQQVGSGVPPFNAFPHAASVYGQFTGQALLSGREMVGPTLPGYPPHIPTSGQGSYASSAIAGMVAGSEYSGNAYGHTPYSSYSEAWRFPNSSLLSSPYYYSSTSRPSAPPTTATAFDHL
The nature of test [13]: non-specific cell cytotoxicity, dose response, cytotoxicity control for PAX8 inhibitor project, plate reader, dry powder samples (AID 743021). The format is functional, cell-based.
A further test has as its system T-cell. As to the kind of experiment: inhibitors of CD8+ T cell–vesicle binding, dose response, mouse 2C CD8+ T cells, flow cytometry (AID 485284). The format is functional. A general note: Flow cytometry measures light scatter and fluorescence of single cells or particles in a stream.
In test [14] the target is Glyceraldehyde-3-phosphate dehydrogenase (Homo sapiens, UniProt P04406).
Test [15] has as its target Alkaline phosphatase, placental type (Homo sapiens, UniProt P05187). Kind of test: PLAP enzyme inhibitors, confirmation, biochemical, luminescence (AID 1512). The format is functional.
The nature of test [16]: Counterscreen for IDE inhibitors: Luminescence-based cell-based high throughput dose response assay to identify compounds that are cytotoxic to HEK cells. [Related pubchem assays: 434962 (Primary screen (IDE inhibitors in singlicate)), 449730 (Counterscreen (Cytotoxicity in triplicate)), 435028 (Confirmation (IDE inhibitors in triplicate)) …. Conditions: HEK293. The format is functional.

Test [17] deals with T2, Kappa-type opioid receptor (Homo sapiens, UniProt P41145). It counts as functional.
T2 sequence (P41145 whole entry): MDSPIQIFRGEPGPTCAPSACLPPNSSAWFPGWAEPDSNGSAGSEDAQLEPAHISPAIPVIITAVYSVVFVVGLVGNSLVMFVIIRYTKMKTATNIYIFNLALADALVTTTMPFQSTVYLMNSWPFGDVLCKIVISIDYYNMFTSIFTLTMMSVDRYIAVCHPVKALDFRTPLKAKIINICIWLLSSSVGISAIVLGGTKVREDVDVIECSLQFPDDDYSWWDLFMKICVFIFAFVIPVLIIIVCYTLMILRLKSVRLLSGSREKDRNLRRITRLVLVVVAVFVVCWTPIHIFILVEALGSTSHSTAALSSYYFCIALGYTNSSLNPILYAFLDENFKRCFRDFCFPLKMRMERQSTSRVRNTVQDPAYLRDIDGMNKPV
Another test deals with T3, Insulin-degrading enzyme (Homo sapiens, UniProt P14735).
T3 sequence (P14735 whole entry): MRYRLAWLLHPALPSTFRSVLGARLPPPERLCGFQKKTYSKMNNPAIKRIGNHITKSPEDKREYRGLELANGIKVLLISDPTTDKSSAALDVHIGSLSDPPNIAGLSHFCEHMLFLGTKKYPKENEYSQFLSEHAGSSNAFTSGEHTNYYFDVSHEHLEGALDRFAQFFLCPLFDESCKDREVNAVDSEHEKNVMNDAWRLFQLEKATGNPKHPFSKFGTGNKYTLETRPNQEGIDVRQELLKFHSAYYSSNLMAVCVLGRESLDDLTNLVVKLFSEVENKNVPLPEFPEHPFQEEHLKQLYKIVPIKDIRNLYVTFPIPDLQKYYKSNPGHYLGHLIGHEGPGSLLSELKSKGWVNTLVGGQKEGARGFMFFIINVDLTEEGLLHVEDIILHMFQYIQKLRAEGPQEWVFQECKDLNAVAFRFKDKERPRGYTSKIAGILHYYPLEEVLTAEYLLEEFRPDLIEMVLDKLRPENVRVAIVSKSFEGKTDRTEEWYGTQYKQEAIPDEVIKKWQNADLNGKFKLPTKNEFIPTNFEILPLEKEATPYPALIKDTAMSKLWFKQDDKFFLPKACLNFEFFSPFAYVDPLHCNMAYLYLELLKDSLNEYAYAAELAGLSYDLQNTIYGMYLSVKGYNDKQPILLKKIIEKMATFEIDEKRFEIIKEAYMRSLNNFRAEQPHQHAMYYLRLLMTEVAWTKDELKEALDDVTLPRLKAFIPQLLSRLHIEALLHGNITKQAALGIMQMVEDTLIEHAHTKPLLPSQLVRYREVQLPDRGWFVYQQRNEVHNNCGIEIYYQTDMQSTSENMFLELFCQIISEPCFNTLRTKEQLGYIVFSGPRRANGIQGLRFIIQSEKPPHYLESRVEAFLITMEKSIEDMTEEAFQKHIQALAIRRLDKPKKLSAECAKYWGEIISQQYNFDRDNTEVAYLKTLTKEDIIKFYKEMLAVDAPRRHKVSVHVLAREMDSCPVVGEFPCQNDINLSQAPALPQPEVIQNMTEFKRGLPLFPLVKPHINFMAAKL
Kind of test: Dose Response: Fluorescence polarization-based cell-based high throughput dose response assay for inhibitors of insulin-degrading enzyme (IDE). [Related pubchem assays: 434962 (Primary screen (IDE inhibitors in singlicate)), 449730 (Counterscreen (Cytotoxicity in triplicate)), 435028 (Confirmation (IDE inhibitors in triplicate)), 434984 (Summary …. It counts as functional.

The target of another test is Beta-galactosidase (Escherichia coli, UniProt Q8VNN2). The format is functional.
Test [18] has as its target T2, Kappa-type opioid receptor. It counts as functional. The source holds these as a separate data set.
For test [19], the target named is 26S proteasome non-ATPase regulatory subunit 14 (Homo sapiens, UniProt O00487). As to the kind of experiment: inhibition of proteasome subunit RPN11 – biochemical, fluorescence polarization, uHTS hits, confirmation (AID 602368). It counts as functional.
The target of test [20] is 72 kDa type IV collagenase (Homo sapiens, UniProt P08253). Kind of test: Dose Response validation of uHTS RPN11 inhibitor hits using a MMP-2 Fluorescence assay. The format is functional.
Another test deals with Prothrombin (Bos taurus, UniProt P00735). As to the kind of experiment: thrombin inhibition, dose response, biochemical, fluorescence polarization, uHTS hits (AID 602369). The format is functional.
Test [21] has as its target T4, Rac GTPase-activating protein 1 (Homo sapiens, UniProt Q9H0H5).
T4 sequence (Q9H0H5 whole entry): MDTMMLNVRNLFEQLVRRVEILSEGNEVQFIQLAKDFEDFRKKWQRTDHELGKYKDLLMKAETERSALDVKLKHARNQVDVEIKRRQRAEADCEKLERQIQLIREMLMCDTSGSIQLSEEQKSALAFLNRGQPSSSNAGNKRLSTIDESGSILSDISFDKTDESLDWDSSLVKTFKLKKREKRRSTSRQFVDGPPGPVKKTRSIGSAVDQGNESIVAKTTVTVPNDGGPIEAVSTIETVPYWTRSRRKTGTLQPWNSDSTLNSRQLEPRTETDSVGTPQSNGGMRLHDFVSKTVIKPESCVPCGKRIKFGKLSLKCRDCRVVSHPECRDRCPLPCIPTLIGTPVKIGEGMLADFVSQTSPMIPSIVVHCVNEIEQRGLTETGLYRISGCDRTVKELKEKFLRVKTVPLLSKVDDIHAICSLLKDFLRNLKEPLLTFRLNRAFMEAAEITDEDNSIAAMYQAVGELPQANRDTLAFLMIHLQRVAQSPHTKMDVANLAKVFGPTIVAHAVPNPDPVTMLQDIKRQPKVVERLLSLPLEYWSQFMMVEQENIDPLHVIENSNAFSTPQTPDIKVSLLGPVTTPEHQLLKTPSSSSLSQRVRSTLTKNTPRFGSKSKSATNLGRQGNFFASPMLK
As to the kind of experiment: MgcRacGAP GTPase-activating activity inhibitors, confirmation, biochemical, ADP Hunter fluorescence, primary and confirmatory (AID 624330). It counts as functional.

Chain of E3 ubiquitin-protein ligase Mdm2/Protein Mdm4 (Q00987 whole entry): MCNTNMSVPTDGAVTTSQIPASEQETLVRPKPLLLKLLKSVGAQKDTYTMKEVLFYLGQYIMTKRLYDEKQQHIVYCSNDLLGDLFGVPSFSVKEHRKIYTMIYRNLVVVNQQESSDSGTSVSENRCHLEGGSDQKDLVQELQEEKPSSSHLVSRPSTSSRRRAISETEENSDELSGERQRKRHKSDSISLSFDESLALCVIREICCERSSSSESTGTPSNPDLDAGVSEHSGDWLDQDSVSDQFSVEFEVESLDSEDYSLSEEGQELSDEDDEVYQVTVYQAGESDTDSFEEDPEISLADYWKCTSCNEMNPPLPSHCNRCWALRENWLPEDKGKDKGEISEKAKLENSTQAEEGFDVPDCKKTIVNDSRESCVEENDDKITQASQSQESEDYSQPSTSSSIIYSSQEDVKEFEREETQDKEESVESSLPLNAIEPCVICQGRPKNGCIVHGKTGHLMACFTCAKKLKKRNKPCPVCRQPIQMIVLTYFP
Chain of E3 ubiquitin-protein ligase Mdm2/Protein Mdm4 (O15151 whole entry): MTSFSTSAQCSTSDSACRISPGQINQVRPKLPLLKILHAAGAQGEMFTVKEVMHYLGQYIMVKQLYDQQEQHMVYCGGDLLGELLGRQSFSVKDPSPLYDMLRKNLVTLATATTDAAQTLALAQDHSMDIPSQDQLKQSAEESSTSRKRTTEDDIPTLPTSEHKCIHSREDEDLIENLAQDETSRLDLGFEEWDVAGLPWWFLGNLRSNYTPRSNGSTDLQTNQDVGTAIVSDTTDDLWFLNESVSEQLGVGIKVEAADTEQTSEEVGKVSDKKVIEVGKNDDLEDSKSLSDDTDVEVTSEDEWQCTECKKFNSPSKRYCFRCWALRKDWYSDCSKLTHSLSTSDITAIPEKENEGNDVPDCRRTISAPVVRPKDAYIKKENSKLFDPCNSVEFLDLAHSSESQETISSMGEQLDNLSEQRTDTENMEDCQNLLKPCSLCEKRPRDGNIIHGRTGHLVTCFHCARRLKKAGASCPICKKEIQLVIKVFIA
Chain of Multidrug resistance protein CDR2 (P78595 whole entry): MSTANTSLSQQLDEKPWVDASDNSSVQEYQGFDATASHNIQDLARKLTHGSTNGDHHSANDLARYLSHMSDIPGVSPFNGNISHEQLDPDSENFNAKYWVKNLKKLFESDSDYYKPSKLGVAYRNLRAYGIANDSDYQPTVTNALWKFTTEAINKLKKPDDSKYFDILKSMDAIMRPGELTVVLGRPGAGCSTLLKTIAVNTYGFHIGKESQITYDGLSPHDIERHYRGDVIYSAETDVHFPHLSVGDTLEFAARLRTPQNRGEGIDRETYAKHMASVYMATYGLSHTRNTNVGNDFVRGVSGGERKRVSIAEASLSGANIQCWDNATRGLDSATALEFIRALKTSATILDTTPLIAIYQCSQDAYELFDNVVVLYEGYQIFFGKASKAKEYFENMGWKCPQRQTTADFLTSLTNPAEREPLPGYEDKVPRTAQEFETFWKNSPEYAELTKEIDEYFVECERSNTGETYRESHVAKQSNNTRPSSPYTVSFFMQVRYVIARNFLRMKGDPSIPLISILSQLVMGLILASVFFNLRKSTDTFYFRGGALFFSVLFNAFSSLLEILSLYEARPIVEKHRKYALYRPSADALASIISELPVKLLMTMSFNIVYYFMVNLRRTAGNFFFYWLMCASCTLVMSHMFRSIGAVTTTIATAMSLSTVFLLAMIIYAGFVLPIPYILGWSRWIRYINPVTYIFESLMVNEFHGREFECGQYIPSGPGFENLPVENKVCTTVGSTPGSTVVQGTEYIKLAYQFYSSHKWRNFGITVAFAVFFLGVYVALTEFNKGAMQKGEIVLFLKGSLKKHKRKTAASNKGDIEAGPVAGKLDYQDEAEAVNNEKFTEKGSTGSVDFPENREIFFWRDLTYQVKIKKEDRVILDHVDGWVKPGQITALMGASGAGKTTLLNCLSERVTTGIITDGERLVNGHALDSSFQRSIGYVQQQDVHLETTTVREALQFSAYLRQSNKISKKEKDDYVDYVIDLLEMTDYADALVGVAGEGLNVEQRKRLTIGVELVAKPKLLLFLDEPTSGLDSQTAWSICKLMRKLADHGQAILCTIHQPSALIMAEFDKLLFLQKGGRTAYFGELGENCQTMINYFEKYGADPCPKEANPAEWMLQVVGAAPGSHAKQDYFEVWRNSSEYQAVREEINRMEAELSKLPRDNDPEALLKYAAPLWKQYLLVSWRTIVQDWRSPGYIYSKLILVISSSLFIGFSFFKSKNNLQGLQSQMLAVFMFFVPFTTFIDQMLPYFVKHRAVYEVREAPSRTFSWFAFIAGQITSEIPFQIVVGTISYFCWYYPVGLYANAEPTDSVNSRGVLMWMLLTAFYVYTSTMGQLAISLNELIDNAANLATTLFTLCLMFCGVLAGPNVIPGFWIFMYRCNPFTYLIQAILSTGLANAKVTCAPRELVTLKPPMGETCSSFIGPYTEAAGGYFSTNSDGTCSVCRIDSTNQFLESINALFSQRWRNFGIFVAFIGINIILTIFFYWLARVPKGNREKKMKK

For orientation: IC50 means the concentration needed to halve the response being measured. As to `CCOC(=O)c1ccc(Nc2nc(N)c3cc(OC)c(OC)cc3n2)cc1`, the figures for the IC50 in test [1] and in test [2] were > 79 µM (inactive) and > 80 µM (inactive), respectively.
As to `COc1ccc(C(=O)Nc2cc(OC)ccc2C(=O)O)cc1`, on Hexokinase, the IC50 is > 25 µM (inactive).
The term CC50 denotes the concentration at which the toxic effect on the cells reaches its halfway point. Regarding `CCCN1CCN(CCCNC(=O)c2cc3c(s2)-c2c(C)cccc2OC3)CC1`, the CC50 is 28.4 µM (active) in the test on Vero [3], 12.3 µM (active) with Vero [4] and 12.4 µM (active) in the test on Vero [5]. Also, the IC50 in test [6] is 10.4 µM (active); with Vero [7] it was > 40 µM (active); in test [8] it was > 20 µM (inactive).
As a reminder, the AC50 is the concentration giving half of the maximal activity seen. As to `Cc1ccc(C(=O)c2c3ccc(C(F)(F)F)cc3nn2CCC(N)=O)cc1`, the AC50 at Trypsin is > 100 µM (inactive); on CAAX prenyl protease 2 it was 3.73 µM (active).
Consider `COc1cc(Cl)c(C)cc1NC(=O)COC(=O)c1ccc(NC(N)=O)cc1`, for which the IC50 in test [9] and in test [10] was > 100 µM (inactive) in each case.
With `COc1ccc(-c2sc3ccccc3c2-c2ccc(OCCN(C)C)cc2)cc1`, the AC50 in test [11] was 3.45 µM (active); with INS1 it was 8.01 µM (active); on Paired box protein Pax-8, 13 µM (active); in test [13], 1.69 µM (active). Further, in test [8], the IC50 was > 20 µM (inactive). In addition, the EC50 was > 57 µM (inactive) at Integrin alpha-4, > 89.2 µM (inactive) at Melanocortin receptor 4 and 57.1 µM (active) in [12].
In the case of `O=C(CS(=O)(=O)Cc1ccccc1)N1CCc2ccccc21`, the EC50 in the test with T-cell was 14.1 µM (active).
As for `O=C1c2ccccc2C(=O)N1c1nc(Cc2ccccc2)n[nH]1`, the results for the IC50 in test [14] and in test [15] were > 100 µM (not active) and > 100 µM (inactive), respectively.
In the case of `COc1cc(/C=C2/SC(=S)N(c3c(C)n(C)n(-c4ccccc4)c3=O)C2=O)ccc1O`, the IC50 in test [16] is > 55.7 µM (not active); in test [17] it was 12.7 µM (active); at Insulin-degrading enzyme it was 7.99 µM (active); in test [18], more than 32 µM; in test [19] it was 24.4 µM (active); in test [20] it was 62.4 µM (active). Further, the concentration for half-maximal inhibition (IC50) at Prothrombin was 68.1 µM (active); in test [21] it was 43.7 µM (active). In addition, on Beta-galactosidase, the EC50 was 13 µM (active).
